# Read-outs that look alike come from different tables or passages of the source.
# Assays:
# [1] = system: HBMEC; assay: HBMEC integrity and morphology (β-catenin, F-actin immunofluorescence); type: cell-based, human
# Source text: (§1) HBMEC in coverslips were stained for: the junctional protein β-catenin (1:100, Thermo Fisher Scientific, Waltham, MA, USA, #71-2700), the cytoskeleton protein F-actin (1:1000, Phalloidin dye, Abcam, Cambridge, UK, #ab17675), and the efflux transporter P-gp (1:50, Santa Cruz Biotechnology, Dallas, TX, USA, #sc-390883). HBMEC seeded on polyester inserts for transport assays were also stained for the junctional protein zonula occludens-1 (ZO-1, 1:200, Thermo Fisher Scientific, Waltham, MA, USA, #40-2200) and the cytoskeleton protein vimentin (1:100, Thermo Fisher Scientific, Waltham, MA, USA, #MA3745).
# (§2) Incubations with primary antibodies occurred overnight at 4 °C. Incubation with the secondary antibodies Alexa Fluor 555 (1:500, Thermo Fisher Scientific, Waltham, MA, USA, #A21428) or Alexa Fluor 488 (1:500, Thermo Fisher Scientific, Waltham, MA, USA, #A11001) lasted for 1 h at room temperature. Nuclei were counterstained with Hoechst 33342 dye (1:1000, Thermo Fisher Scientific, Waltham, MA, USA, #33342) for 10 min. Before mounting with DPX (Merck Millipore, Burlington, MA, USA), cells were dehydrated with methanol. Negative controls were performed.
# (§3) All acquired images were treated in ImageJ (NIH, Bethesda, MD, USA). Assessment of nuclear morphology following Hoechst staining was evaluated. For fluorescence intensity measures, the regions of interest were selected in Image J, and corresponding integrated densities were obtained. The representative 3D plots for BBB integrity were obtained by merged pixel intensity using the surface plot tool of Image J. For F-actin stress fibers analysis, the plot profile tool of Image J was used considering each defined cell-ferret diameter.
# For analysis of β-catenin internalization and HBMEC morphological changes, Icy software was used. At least 5 cells per field were delineated and the conveyed values of membrane/interior pixels and roundness (area/perimeter^2) were exported and analyzed. Taking advantage of membrane staining (β-catenin), the BBB’s integrity was also analyzed by quantifying the total area of intercellular gaps in the HBMEC monolayer.
# [2] = system: U87MG cells; assay: MTT cell viability, U87MG; type: cell-based; details: 24 h; for EC50 / cell death: U87MG; for cell death: screening 0.1-100 µM
# Procedure: (§4) To analyze molecules’ cytotoxicity, U87MG and U87MG-wtEGFR cells were seeded into 96-well plates at a density of 2.5 × 10^4 cells/mL, and after 48 h were incubated with 0.1, 1, 10, or 100 µM of each molecule diluted in (non-supplemented) cell medium for 24 h. The half-maximal effective concentration (EC50) of the most cytotoxic compounds was quantified. Dose–response data were also obtained for treatment with triton X-100 (positive control) and DMSO (vehicle; negative control). The cytotoxicity of selected molecules from initial screening was tested in HBMEC at 100 µM for 24 h. HBMEC were seeded at a density of 8 × 10^4 cell/mL in 96-well plates and after 48 h were incubated with the molecules.
# (§5) In screening assays, cell viability was evaluated using thiazolyl blue tetrazolium bromide (MTT). Briefly, a culture medium containing 0.5 mg/mL of MTT was added to each well for 90 min at 37 °C. The supernatant was removed and the formed formazan crystals in viable cells were solubilized with 0.04 N HCl in isopropanol solution. The absorbance was recorded using a microplate reader (Zenyth 3100, Anthos Labtec Instruments, Salzburg, Austria) at 595 nm, and values of cell viability were calculated as percentage of negative control.
# [3] = system: U87MG cells; assay: Abluminal conditioned medium of HBMEC on U87MG; type: cell-based; details: 24 h, MTT
# Procedure: To evaluate disruptive effects in HBMEC monolayer when co-cultured, a transport assay using HBMEC monoculture was conducted. After 2 h of molecules incubation, the abluminal conditioned media were collected and used to supply U87MG or U87MG-wtEGFR cells for 24 h, which grew to confluence for 3 days. HBMEC were also tested for barrier integrity, and MTT assays were performed at the end of incubation.
# [4] = system: U87MG-wtEGFR cells; assay: MTT cell viability, U87MG-wtEGFR; type: cell-based; details: 24 h; for cell death: screening 0.1-100 µM
# Procedure: as §4, with “The half-maximal effective concentration (EC50) of the most cytotoxic compounds was quantified.” left out
# In screening assays, cell viability was evaluated using thiazolyl blue tetrazolium bromide (MTT). Briefly, a culture medium containing 0.5 mg/mL of MTT was added to each well for 90 min at 37 °C. The supernatant was removed and the formed formazan crystals in viable cells were solubilized with 0.04 N HCl in isopropanol solution.
# [5] = system: P-gp; assay: P-gp expression in HBMEC (immunofluorescence); type: cell-based, human; details: U87MG EC50, 9 h
# Source text: as §1, §2, §3
# [6] = system: U87MG cells; assay: Apoptotic cells by nuclear morphology (Hoechst) in U87MG; type: cell-based; details: for apoptotic cells: at EC50, 9 h
# [7] = system: HBMEC monolayer; assay: Transwell in vitro BBB model: transport (UPLC-MS/MS) and barrier integrity; type: in vitro ADME, human
# Procedure: To evaluate molecules’ BBB transport, a well-validated two-chamber BBB model, relying on the use of a microporous semipermeable membrane (Transwell insert) that separates the upper (luminal: “blood side”) and the lower (abluminal: “brain side”) chambers, was used as usual in our team. Briefly, HBMEC were seeded on polyester inserts (0.4 μm, Corning Costar Corp., New York, NY, USA) at a density of 8 × 10^4 cell/insert and treated after 8 days in culture. Inserts were coated with rat-tail collagen-I (BD Biosciences, Erembodegem, Aalst, Belgium) before seeding. Transport assays were conducted in Hank’s Balanced Salt Solution (HBSS, Gibco, Waltham, MA, USA) with calcium and magnesium, supplemented with 0.1% FBS.
# Samples from upper and lower chambers were deproteinized using acetonitrile (ACN) (1:3) in ice-cold conditions, centrifuged at 15,300× g for 5 min at 4 °C and the respective supernatants were frozen until subsequent analysis.
# The identification and quantification of molecules of interest were achieved by ultra-performance liquid chromatography–tandem mass spectrometry (UPLC-MS/MS) analysis using a triple quadrupole and Masslynx 4.1 software (Acquity TQ Waters). The separation of analytes was performed using a reversed-phase column Purospher STAR, RP-18 endcapped, 2 µm; Hibar HR 50-2.1 (Merck, Rahway, NJ, USA) at 35 °C, and a linear gradient (0.1% formic acid (A): ACN with 0.1% formic acid (B)) at a flow rate of 0.30 mL/min. The detection of analytes was based on electrospray ionization in the positive mode (ESI+) and acquisition in multiple reaction monitoring mode (MRM) at the following settings: ESI capillary voltage 3.0 kV, cone voltage 30 V, extractor voltage 1 V, RF lens voltage 0.1 V, desolvation gas flow 750 L/h at 350 °C, cone gas flow 50 L/h at 120 °C. Calibration curves were based on external standards using at least 8-points within the intended range, injected as duplicates. Analytes were quantified with a maximum deviation of 15% between the MRM1/MRM2 ratio. Each sample was injected in triplicate. Endothelial transport was calculated based on the ratio of lower compartment concentration and the sum of upper and lower compartments concentrations.
# HBMEC monolayer integrity was ensured during BBB transport assays by TEER measurements and sodium-fluorescein paracellular permeability assessment, as previously described. TEER readings were performed using an EndOhm^TM chamber coupled to an EVOMX resistance meter (World Precision Instruments, Inc., Sarasota, FL, USA) and sodium fluorescein levels were measured using a Hitachi F-2000 fluorescence spectrophotometer.
# [8] = system: phospho-AKT; assay: Immunofluorescence of phospho-AKT in U87MG cells; type: cell-based; details: for inhibition of phospho-AKT expression: at EC50, after 6 h exposure
# [9] = system: U87MG cells; assay: BBB-GB co-culture model HBMEC:U87MG; type: cell-based
# Procedure: To assess molecule cytotoxicity in GB cells after crossing the HBMEC monolayer, a co-culture BBB-GB model was used. HBMEC were seeded in the Transwell apparatus as described above. After 5 days, U87MG or U87MG-wtEGFR cells were seeded (1.2 × 10^5 cell/mL) in the lower chamber. After 3 days of co-culture, upper chamber content was replaced with fresh medium (control) or medium containing each molecule at respective EC50. After 2 h, inserts were removed and tested for barrier integrity by TEER readings and immunofluorescence analysis, whereas GB cells were maintained in culture for 24 h to further assess cell viability by MTT assay.
# [10] = system: phospho-EGFR; assay: Immunofluorescence of phospho-EGFR in U87MG cells; type: cell-based
# [11] = system: HBMEC; assay: MTT cell viability, HBMEC; type: cell-based, human; details: 24 h, 100 µM
# Procedure: as §4, §5
# [12] = system: U87 cells; set-up: method as in PMID 34794398; details: depending on the incubation time; cited from earlier work
# [13] = several cell-based studies; cited from earlier work
# [14] = system: patient-derived cell lines; set-up: method as in PMID 34794398; details: 72 h, read-out: median IC50; cited from earlier work
# [15] = U87MG-wtEGFR, MTT, read-out: EC50
compound,measurement,setting,value
CCCCN1CCCc2cc(CN(CCN3CCOCC3)C(=S)Nc3cc(F)cc(F)c3)ccc21 [Mol 19],HBMEC shape (roundness),[1],no significant changes in HBMEC shape
same,β-catenin expression and location,[1],absence of changes in β-catenin expression and location
same,EC50,"[2]; Homo sapiens, U-87 MG",104 ± 14.9 µM
same,cell death,[2],≥ 50%
same,U87MG cell viability with basolateral conditioned medium of HBMEC,[3],none of the molecules induced a statistically significant difference
same,EC50,[4]; [15],27.6 ± 5.91 µM
same,cell death,"[4]; U87MG-wtEGFR, MTT",≥ 50%
same,P-gp expression (mean intensity) in HBMEC,[5],No significant changes in P-gp expression
same,apoptotic cells,[6],about 35%
same,HBMEC permeability to sodium fluorescein (Pe),[7]; U87MG EC50,no statistical differences between treated cells and control
same,TEER of HBMEC monolayer,"[7]; U87MG EC50, 30 min",None of the molecules markedly changed the TEER
same,"endothelial transport efficiency, 30 vs. 120 min",[7]; UPLC-MS/MS,transported across the HBMEC monolayer in a time-dependent manner
same,transport across the BBB endothelium,"[7]; UPLC-MS/MS, 30 and 120 min",could be transported across the BBB endothelium
same,phosphorylated AKT expression compared with control,"[8]; at EC50, 1-9 h",decreased expression
same,TEER of HBMEC,"[9]; 2 h at EC50, mono- or co-culture system",TEER readings were not decreased
same,U87MG cell viability in co-culture system,"[9]; added to upper chamber at EC50 for 2 h, MTT after 24 h",impaired
Brc1ccc(Nc2ncnc3ccccc23)cc1 [Mol 17],F-actin stress fibers per cell,"[1]; human, 9 h",highly increased the number of stress fibers/cell
same,HBMEC shape (roundness),"[1]; human, 9 h",increased cell roundness
same,"disrupted barrier integrity (endothelial gaps), of control","[1]; human, 9 h",78%
same,β-catenin expression and location,"[1]; human, 9 h",irregular and discontinuous appearance
same,EC50,"[2]; Homo sapiens, U-87 MG",129 ± 14.5 µM
same,cell death,[2],≥ 50%
same,EC50,[4]; [15],50.4 ± 5.21 µM
same,cell death,"[4]; U87MG-wtEGFR, MTT",≥ 50%
same,"phospho-EGFR expression, of that observed in control","[10]; at EC50, 9 h",about 30%
same,P-gp expression (mean intensity) in HBMEC,[5],significant increase in P-gp mean intensity
same,apoptotic cells,[6],~40%
same,impairment of HBMEC cell viability,[11]; human,about 65%
C=CC(=O)Nc1ccc2ncnc(Nc3cccc(Br)c3)c2c1 [Mol 27],F-actin stress fibers per cell,"[1]; HBMEC, U87MG EC50, 9 h",highly increased the number of stress fibers/cell
same,HBMEC shape (roundness),"[1]; HBMEC, U87MG EC50, 9 h",increased cell roundness
same,β-catenin expression and location,"[1]; HBMEC, U87MG EC50, 9 h",irregular and discontinuous appearance
same,"disrupted barrier integrity (endothelial gaps), of control","[1]; HBMEC, U87MG EC50, 9 h, β-catenin staining",82%
same,EC50,"[2]; Homo sapiens, U-87 MG",22.7 ± 2.22 µM
same,cell death,[2],≥ 50%
same,P-gp expression (mean intensity) in HBMEC,[5],significant increase in P-gp mean intensity
same,apoptotic cell death,"[6]; at EC50, 6 h",12.8%
same,apoptotic cells,[6],31.9%
same,inhibition of phospho-AKT expression,[8],> 50%
same,impairment of HBMEC cell viability,[11]; MTT,~58%
"Cn1nnc2c(C(N)=O)ncn2c1=O [TMZ, temozolomide]",IC50,[12],124 to 230 µM
same,doses at which more than 50% cytotoxicity was seen,[13],up to 4000 µM
same,IC50,[14],800 µM
"C=CC(=O)Nc1cc2c(Nc3ccc(F)c(Cl)c3)ncnc2cc1OCCCN1CCOCC1 [Mol 25, canertinib, reference compound]",HBMEC detachment,"[1]; human, 9 h",100%
same,viability at 100 µM,"[2]; Homo sapiens, U-87 MG, 100 µM, GB cell line not given, read-out: viable cells",~0%
same,EC50,"[2]; Homo sapiens, U-87 MG",16.3 ± 2.26 µM
same,cell death,[2],≥ 50%
same,EC50,[4],11.3 ± 2.15 µM
same,cell death,"[4]; U87MG-wtEGFR, MTT",≥ 50%
same,reduction of mean intensity of phosphorylated EGFR,"[10]; at EC50, 9 h",92.6%
same,inhibition of phospho-EGFR expression,"[10]; at EC50, after 6 h exposure",> 50%
same,apoptotic cells,[6],~85%
same,inhibition of phospho-AKT expression,[8],> 50%
same,impairment of HBMEC cell viability,[11]; human,~100%
